Laboratory results: ChEMBL document CHEMBL3045305, “Synthesis, anticancer and antibacterial activities of piperine analogs” (Med Chem Res, 2013)
Values after ≈ are worked out from the molar mass of the structure shown.

Key:
Format in all cases: functional
[1] = tested on: Pseudomonas aeruginosa; experiment: Antibacterial activity against Pseudomonas aeruginosa assessed as growth inhibition after 24 hr by two-fold serial dilution method
[2] = tested on: Staphylococcus aureus; experiment: Antibacterial activity against Staphylococcus aureus assessed as growth inhibition after 24 hr by two fold serial dilution method
[3] = tested on: Bacillus subtilis; experiment: Antibacterial activity against Bacillus subtilis assessed as growth inhibition after 24 hr by two fold serial dilution method
[4] = tested on: Shigella dysenteriae; experiment: Antibacterial activity against Shigella dysenteriae assessed as growth inhibition after 24 hr by two-fold serial dilution method
[5] = tested on: Salmonella typhi; experiment: Antibacterial activity against Salmonella enterica subsp. enterica serovar Typhi assessed as growth inhibition after 24 hr by two fold serial dilution method
[6] = tested on: Klebsiella pneumoniae; experiment: Antibacterial activity against Klebsiella pneumoniae assessed as growth inhibition after 24 hr by two-fold serial dilution method
[7] = tested on: Escherichia coli; experiment: Antibacterial activity against Escherichia coli assessed as growth inhibition after 24 hr by two-fold serial dilution method

Row | SMILES | MIC [1] [µg/mL] | MIC [2] [µg/mL] | MIC [3] [µg/mL] | MIC [4] [µg/mL] | MIC [5] [µg/mL] | MIC [6] [µg/mL] | MIC [7] [µg/mL]
1 | O=C(/C=C/C=C/c1ccc2c(c1)OCO2)Nc1ccc(Cl)cc1 | 200 (≈ 610 µM) | 200 (≈ 610 µM) | 500 (≈ 1530 µM) | 200 (≈ 610 µM) | 400 (≈ 1220 µM) | 300 (≈ 915 µM) | 100 (≈ 305 µM)
2 | O=C(/C=C/C=C/c1ccc2c(c1)OCO2)N[C@@H](Cc1cnc[nH]1)C(=O)O | 300 (≈ 844 µM) | 300 (≈ 844 µM) | 300 (≈ 844 µM) | 200 (≈ 563 µM) | 300 (≈ 844 µM) | 300 (≈ 844 µM) | 200 (≈ 563 µM)
3 | O=C(/C=C/C=C/c1ccc2c(c1)OCO2)N[C@@H](Cc1ccccc1)C(=O)O | 400 (≈ 1090 µM) | 400 (≈ 1090 µM) | 400 (≈ 1090 µM) | 150 (≈ 411 µM) | 200 (≈ 547 µM) | 300 (≈ 821 µM) | 300 (≈ 821 µM)
4 | O=C(/C=C/C=C/c1ccc2c(c1)OCO2)N[C@@H](Cc1c[nH]c2ccccc12)C(=O)O | 200 (≈ 495 µM) | 300 (≈ 742 µM) | 400 (≈ 989 µM) | 300 (≈ 742 µM) | 200 (≈ 495 µM) | 200 (≈ 495 µM) | 400 (≈ 989 µM)
5 | CC1(C)S[C@@H]2[C@H](NC(=O)[C@H](N)c3ccccc3)C(=O)N2[C@H]1C(=O)O [AMPICILLIN] | 50 (≈ 143 µM) | 11 (≈ 31.5 µM) | 10 (≈ 28.6 µM) | 16 (≈ 45.8 µM) | 15 (≈ 42.9 µM) | 8 (≈ 22.9 µM) | 5 (≈ 14.3 µM)
6 | O=C(/C=C/C=C/c1ccc2c(c1)OCO2)N1CCCCC1 [PIPERINE] | 100 (≈ 350 µM) | 300 (≈ 1050 µM) | 500 (≈ 1750 µM) | 600 (≈ 2100 µM) | 200 (≈ 701 µM) | 200 (≈ 701 µM) | 300 (≈ 1050 µM)
7 | O=C(/C=C/C=C/c1ccc2c(c1)OCO2)Nc1ccc(Br)cc1 | 500 (≈ 1340 µM) | 300 (≈ 806 µM) | 500 (≈ 1340 µM) | 300 (≈ 806 µM) | 300 (≈ 806 µM) | 100 (≈ 269 µM) | 200 (≈ 537 µM)
